Experiments:
[1] = tested on: WEHI265.1; assay: In vitro inhibitory activity against lipopolysaccharide (LPS)-induced interleukin 6 production in murine myelomonocytic leukemia (WEHI-265.1) cells at a concentration of 10 uM; type: functional; details: Mus musculus
[2] = tested on: WEHI265.1; assay: In vitro inhibitory activity against lipopolysaccharide (LPS)-induced interleukin 6 (IL-6) production in murine myelomonocytic leukemia (WEHI-265.1) cells; type: functional, cell-based; details: Mus musculus
[3] = tested on: Mus musculus; assay: Inhibitory activity against LPS-induced interleukin 6 (IL-6) in the serum of C3H mice, at a dose of 25 mpk by oral administration; type: functional
[4] = tested on: Mus musculus; assay: Effective dose of compound against serum interleukin 6 (IL-6) in C3H mice when administered intraperitoneally; type: functional; details: ip
[5] = tested on: WEHI265.1; assay: In vitro inhibitory activity against lipopolysaccharide (LPS) -induced IL-6 production in murine myelomonocytic uM; type: functional, Mus musculus
[6] = tested on: Mus musculus; assay: Inhibitory activity against LPS-induced interleukin 6 (IL-6) in the serum of C3H mice, at a dose of 25 mpk by intraperitoneal administration; type: functional; details: ip
[7] = tested on: Mus musculus; assay: Effective dose of compound against serum interleukin 6 (IL-6) in C3H mice when administered orally; type: functional; details: po

Row | Structure (SMILES) | inhibition at 10 µM [1] | IC50 [2] | also measured
1 | OC1=C(c2ccccc2C(F)(F)F)C2=NCCN2C2=C1CCC2 | 90% | – | –
2 | CN1CCn2c3c(c(=O)c(-c4ccccc4)c21)CCC3 | 27% | – | –
3 | OC1=CC2=NCCN2C2=C1CCC2 | 38% | – | –
4 | OC1=C(Sc2ccccc2)C2=NCCN2C2=C1CCC2 | 63% | – | –
5 | OC1=C(c2ccccc2O)C2=NCCN2C2=C1CCC2 | 55% | – | –
6 | CSC1=C(O)C2=C(CCC2)N2CCN=C12 | 77% | – | –
7 | O=c1c2c(n3c(c1-c1ccccc1)SCC3)CCC2 | 52% | – | –
8 | O=[N+]([O-])c1ccccc1C1=C(O)C2=C(CCC2)N2CCN=C12 | 73% | 6 µM | inhibition in vivo at 25 mg/kg [3]: 78%; ED50 [4]: 8 mg/kg
9 | CC(=O)Nc1ccccc1-c1c2n(c3c(c1=O)CCC3)CCN2 | 74% | 5 µM | –
10 | O=c1c2c(n3c(c1-c1ccccc1)N(Cc1ccccc1)CC3)CCC2 | 43% | – | –
11 | Nc1ccccc1-c1c2n(c3c(c1=O)CCC3)CCN2 | 82% | 2 µM | inhibition in vivo at 25 mg/kg [3]: 72%; ED50 [4]: 4 mg/kg
12 | O=C(O)c1cccc(C2=C(O)C3=C(CCC3)N3CCN=C23)c1 | 0% | – | –
13 | O=c1c2c(n3c(c1-c1ccccc1Cl)NCC3)CCC2 | 90% | 4 µM | ED50 [4]: 0.5 mg/kg
14 | O=c1c2c(n3c(c1-c1ccccc1)OCC3)CCC2 | 20% | – | –
15 | CCOC(=O)C1=C(O)C2=C(CCC2)N2CCN=C12 | 58% | – | –
16 | OC1=C(c2ccccn2)C2=NCCN2C2=C1CCC2 | 55% | – | –
17 | OC1=C(c2cccnc2)C2=NCCN2C2=C1CCC2 | 0% | – | –
18 | COc1ccccc1-c1c2n(c3c(c1=O)CCC3)CCN2 | 82% | – | ED50 [4]: 0.3 mg/kg
19 | OC1=C(c2ccccc2)C2=NCCN2C2=C1CCC2 | – | 0.2 µM | Inhibition [5]: 74%; inhibition in vivo at 25 mg/kg [6]: 77%; ED50 [7]: 32 mg/kg; inhibition in vivo at 25 mg/kg [3]: 39%; ED50 [4]: 0.35 mg/kg
20 | CCOC(=O)c1cccc(C2=C(O)C3=C(CCC3)N3CCN=C23)c1 | 83% | 0.6 µM | –

Reference: ChEMBL document CHEMBL1151040, “Synthetic inhibitors of interleukin-6 I: 2,3,7,8-tetrahydro-4-aryl-1H-cyclopent [e] imidazo [1,2-a]- pyridin-5(6H)-one and related compounds” (Bioorg Med Chem Lett, 1995)
